In patent publication US11325938B2, “CD73 inhibitors” (ORIC Pharmaceuticals, Inc., priority 2018, dated 2022):

molecular target: CD73 (Homo sapiens (Human), UniProt P21589); assay: Biochemical assay: inhibition of CD73 activity (AMP hydrolysis, Malachite Green readout); conditions: CD73 0.3208 nM, AMP 15 μM, 25 mM Tris-HCl pH 7.4, RT, absorbance 620 nm
Summary of the method: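 Phosphate from AMP hydrolysis (15 μM AMP, 10 min, RT) was detected by Malachite Green absorbance to give IC50s. Enzyme at 320 pM was first exposed 15 min to compounds, dosed from 100 μM in ½-log steps, in Tris pH 7.4 buffer with MgCl2, Brij-35 and BSA.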

Sequence of CD73 (P21589 27-574): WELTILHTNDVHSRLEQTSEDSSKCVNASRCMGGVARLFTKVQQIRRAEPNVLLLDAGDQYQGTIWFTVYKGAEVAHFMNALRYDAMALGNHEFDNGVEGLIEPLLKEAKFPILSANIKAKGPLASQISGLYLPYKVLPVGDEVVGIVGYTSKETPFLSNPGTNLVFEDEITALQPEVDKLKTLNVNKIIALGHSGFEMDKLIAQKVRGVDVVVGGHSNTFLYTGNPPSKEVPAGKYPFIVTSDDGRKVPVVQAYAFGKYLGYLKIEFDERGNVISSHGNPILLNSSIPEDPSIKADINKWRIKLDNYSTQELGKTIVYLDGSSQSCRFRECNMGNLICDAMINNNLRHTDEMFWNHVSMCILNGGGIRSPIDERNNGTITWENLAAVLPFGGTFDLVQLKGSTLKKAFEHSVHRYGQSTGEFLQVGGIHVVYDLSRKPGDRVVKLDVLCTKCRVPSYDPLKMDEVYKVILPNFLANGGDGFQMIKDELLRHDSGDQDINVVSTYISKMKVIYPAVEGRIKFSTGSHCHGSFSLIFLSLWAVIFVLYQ

Compound	IC50
COP(=O)(CP(=O)(O)O)OC[C@H]1O[C@@H](n2nnc3c(NC4CCCC4)cc(Cl)nc32)[C@H](O)[C@@H]1O (stereo partly drawn) [Example 54, (((((2R,3S,4R,5R)-5-(5-chloro-7-(cyclopentylamino)-3H-[1,2,3]triazolo[4,5-b]pyridin-3-yl)-3,4-dihydroxytetrahydrofuran-2-yl)methoxy)(methoxy)phosphoryl)methyl)phosphonic acid]	≤ 0.1 µM
CC(CO)(OC[C@H]1O[C@@H](n2ncc3c(NC4CCCC4)nc(OCCO)nc32)[C@H](O)[C@@H]1O)P(=O)(O)O (stereo partly drawn) [Example 68, (2-(((2R,3S,4R,5R)-5-(4-(cyclopentylamino)-6-(2-hydroxyethoxy)-1H-pyrazolo[3,4-d]pyrimidin-1-yl)-3,4-dihydroxytetrahydrofuran-2-yl)methoxy)-1-hydroxypropan-2-yl)phosphonic acid]	≤ 0.1 µM
C[C@](CO)(OC[C@H]1O[C@@H](n2ncc3c(N[C@@H]4CCc5cc(F)ccc54)nc(Cl)nc32)[C@H](O)[C@@H]1O)P(=O)(O)O [Example 121, ((S)-2-(((2R,3S,4R,5R)-5-(6-chloro-4-(((R)-5-fluoro-2,3-dihydro-1H-inden-1-yl)amino)-1H-pyrazolo[3,4-d]pyrimidin-1-yl)-3,4-dihydroxytetrahydrofuran-2-yl)methoxy)-1-hydroxypropan-2-yl)phosphonic acid]	≤ 0.1 µM
O=C1CC(OC[C@H]2O[C@@H](n3ncc4c(NC5CCCC5)nc(Cl)nc43)[C@H](O)[C@@H]2O)(P(=O)(O)O)CO1 (mixture of isomers) [Example 186, rac-(3-(((2R,3S,4R,5R)-5-(6-chloro-4-(cyclopentylamino)-1H-pyrazolo[3,4-d]pyrimidin-1-yl)-3,4-dihydroxytetrahydrofuran-2-yl)methoxy)-5-oxotetrahydrofuran-3-yl)phosphonic acid]	≤ 0.1 µM
O=P(O)(O)[C@](CO)(COCC1CC1)OC[C@H]1O[C@@H](n2ncc3c(NC4CCCC4)nc(Cl)nc32)[C@H](O)[C@@H]1O (racemic) [Example 170, rac-((R)-2-(((2R,3S,4R,5R)-5-(6-chloro-4-(cyclopentylamino)-1H-pyrazolo[3,4-d]pyrimidin-1-yl)-3,4-dihydroxytetrahydrofuran-2-yl)methoxy)-1-(cyclopropylmethoxy)-3-hydroxypropan-2-yl)phosphonic acid]	≤ 0.1 µM
C[C@@H](O)COc1nc(NC2CCCC2)c2cnn([C@@H]3O[C@H](CO[C@@](C)(CO)P(=O)(O)O)[C@@H](O)[C@H]3O)c2n1 (racemic) [Example 165, rac-((R)-2-(((2R,3S,4R,5R)-5-(4-(cyclopentylamino)-6-((R)-2-hydroxypropoxy)-1H-pyrazolo[3,4-d]pyrimidin-1-yl)-3,4-dihydroxytetrahydrofuran-2-yl)methoxy)-1-hydroxypropan-2-yl)phosphonic acid]	≤ 0.1 µM
O=P(O)(O)C(CO)(Cc1nc[nH]n1)OC[C@H]1O[C@@H](n2ncc3c(NC4CCCC4)nc(Cl)nc32)[C@H](O)[C@@H]1O (mixture of isomers) [Example 219, rac-(2-(((2R,3S,4R,5R)-5-(6-chloro-4-(cyclopentylamino)-1H-pyrazolo[3,4-d]pyrimidin-1-yl)-3,4-dihydroxytetrahydrofuran-2-yl)methoxy)-1-hydroxy-3-(1H-1,2,4-triazol-3-yl)propan-2-yl)phosphonic acid]	≤ 0.1 µM
O=P(O)(O)C(CO)(CO)OC[C@H]1O[C@@H](n2ncc3c(N[C@@H]4CCc5ccccc54)nc(OCCO)nc32)[C@H](O)[C@@H]1O [Example 100, (2-(((2R,3S,4R,5R)-5-(4-(((R)-2,3-dihydro-1H-inden-1-yl)amino)-6-(2-hydroxyethoxy)-1H-pyrazolo[3,4-d]pyrimidin-1-yl)-3,4-dihydroxytetrahydrofuran-2-yl)methoxy)-1,3-dihydroxypropan-2-yl)phosphonic acid]	≤ 0.1 µM
Cn1cnc(CC(CO)(OC[C@H]2O[C@@H](n3ncc4c(NC5CCCC5)nc(Cl)nc43)[C@H](O)[C@@H]2O)P(=O)(O)O)c1 (stereo partly drawn) [Example 94, (2-(((2R,3S,4R,5R)-5-(6-chloro-4-(cyclopentylamino)-1H-pyrazolo[3,4-d]pyrimidin-1-yl)-3,4-dihydroxytetrahydrofuran-2-yl)methoxy)-1-hydroxy-3-(1-methyl-1H-imidazol-4-yl)propan-2-yl)phosphonic acid]	0.1 to 1 µM
CC(CO)(OC[C@H]1O[C@@H](n2ncc3c(NC4CCCC4)cc(Cl)nc32)[C@H](O)[C@@H]1O)P(=O)(O)O (stereo partly drawn) [Example 152, (2-(((2R,3S,4R,5R)-5-(6-chloro-4-(cyclopentylamino)-1H-pyrazolo[3,4-b]pyridin-1-yl)-3,4-dihydroxytetrahydrofuran-2-yl)methoxy)-1-hydroxypropan-2-yl)phosphonic acid]	≤ 0.1 µM
O=P(O)(O)C(CO)(CO)OC[C@H]1O[C@@H](n2ncc3c(N[C@@H]4CCc5ccccc54)nc(Cl)nc32)[C@H](O)[C@@H]1O [Example 113, (2-(((2R,3S,4R,5R)-5-(6-chloro-4-(((R)-2,3-dihydro-1H-inden-1-yl)amino)-1H-pyrazolo[3,4-d]pyrimidin-1-yl)-3,4-dihydroxytetrahydrofuran-2-yl)methoxy)-1,3-dihydroxypropan-2-yl)phosphonic acid]	≤ 0.1 µM
O=P(O)(O)C(CO)(Cc1ccccn1)OC[C@H]1O[C@@H](n2ncc3c(NC4CCCC4)nc(Cl)nc32)[C@H](O)[C@@H]1O (stereo partly drawn) [Example 93, (2-(((2R,3S,4R,5R)-5-(6-chloro-4-(cyclopentylamino)-1H-pyrazolo[3,4-d]pyrimidin-1-yl)-3,4-dihydroxytetrahydrofuran-2-yl)methoxy)-1-hydroxy-3-(pyridin-2-yl)propan-2-yl)phosphonic acid]	≤ 0.1 µM
C[C@@](COCCO)(OC[C@H]1O[C@@H](n2ncc3c(NC4CCCC4)nc(Cl)nc32)[C@H](O)[C@@H]1O)P(=O)(O)O [Example 124, ((R)-2-(((2R,3S,4R,5R)-5-(6-chloro-4-(cyclopentylamino)-1H-pyrazolo[3,4-d]pyrimidin-1-yl)-3,4-dihydroxytetrahydrofuran-2-yl)methoxy)-1-(2-hydroxyethoxy)propan-2-yl)phosphonic acid]	≤ 0.1 µM
COCC(C)(OC[C@H]1O[C@H](n2nnc3c(N[C@@H]4CCc5ccccc54)nc(Cl)nc32)[C@H](O)[C@@H]1O)P(=O)(O)O (stereo partly drawn) [Example 154, (2-(((2R,3S,4R,5S)-5-(5-chloro-7-(((R)-2,3-dihydro-1H-inden-1-yl)amino)-3H-[1,2,3]triazolo[4,5-d]pyrimidin-3-yl)-3,4-dihydroxytetrahydrofuran-2-yl)methoxy)-1-methoxypropan-2-yl)phosphonic acid]	≤ 0.1 µM

Next, values leading:

IC50	Compound
≤ 0.1 µM	COCC(OC[C@H]1O[C@@H](n2nnc3c(NC4CCCC4)nc(Cl)nc32)[C@H](O)[C@@H]1O)P(=O)(O)O (stereo partly drawn) [Example 142, (1-(((2R,3S,4R,5R)-5-(5-chloro-7-(cyclopentylamino)-3H-[1,2,3]triazolo[4,5-d]pyrimidin-3-yl)-3,4-dihydroxytetrahydrofuran-2-yl)methoxy)-2-methoxyethyl)phosphonic acid]
≤ 0.1 µM	C[C@@](CO)(OC[C@H]1O[C@@H](n2ncc3c(NC4CCCC4)cc(Cl)nc32)[C@H](O)[C@@H]1O)P(=O)(O)O (racemic) [Example 194, rac-((R)-2-(((2R,3S,4R,5R)-5-(6-chloro-4-(cyclopentylamino)-1H-pyrazolo[3,4-b]pyridin-1-yl)-3,4-dihydroxytetrahydrofuran-2-yl)methoxy)-1-hydroxypropan-2-yl)phosphonic acid]
≤ 0.1 µM	O=P(O)(O)CS(=O)(=O)C[C@H]1O[C@@H](n2nnc3c(NCc4ccccc4Cl)cc(Cl)nc32)[C@H](O)[C@@H]1O [Example 27, (((((2S,3S,4R,5R)-5-(5-chloro-7-((2-chlorobenzyl)amino)-3H-[1,2,3]triazolo[4,5-b]pyridin-3-yl)-3,4-dihydroxytetrahydrofuran-2-yl)methyl)sulfonyl)methyl)phosphonic acid]
≤ 0.1 µM	COCCOc1nc(NC2CCCC2)c2cnn([C@@H]3O[C@H](COC(C)(CO)P(=O)(O)O)[C@@H](O)[C@H]3O)c2n1 (stereo partly drawn) [Example 145, (2-(((2R,3S,4R,5R)-5-(4-(cyclopentylamino)-6-(2-methoxyethoxy)-1H-pyrazolo[3,4-d]pyrimidin-1-yl)-3,4-dihydroxytetrahydrofuran-2-yl)methoxy)-1-hydroxypropan-2-yl)phosphonic acid]
≤ 0.1 µM	CC(C)OC[C@](CO)(OC[C@H]1O[C@@H](n2ncc3c(NC4CCCC4)nc(Cl)nc32)[C@H](O)[C@@H]1O)P(=O)(O)O [Example 114, ((R)-2-(((2R,3S,4R,5R)-5-(6-chloro-4-(cyclopentylamino)-1H-pyrazolo[3,4-d]pyrimidin-1-yl)-3,4-dihydroxytetrahydrofuran-2-yl)methoxy)-1-hydroxy-3-isopropoxypropan-2-yl)phosphonic acid]
≤ 0.1 µM	COCC(OC[C@H]1O[C@@H](n2ncc3c(NC4CCCC4)nc(Cl)nc32)[C@H](O)[C@@H]1O)P(=O)(O)O (stereo partly drawn) [Example 31, (1-(((2R,3S,4R,5R)-5-(6-chloro-4-(cyclopentylamino)-1H-pyrazolo[3,4-d]pyrimidin-1-yl)-3,4-dihydroxytetrahydrofuran-2-yl)methoxy)-2-methoxyethyl)phosphonic acid]
≤ 0.1 µM	O=P(O)(O)C(CO)(COCC(F)(F)F)OC[C@H]1O[C@@H](n2ncc3c(NC4CCCC4)nc(Cl)nc32)[C@H](O)[C@@H]1O (mixture of isomers) [Example 207, rac-(2-(((2R,3S,4R,5R)-5-(6-chloro-4-(cyclopentylamino)-1H-pyrazolo[3,4-d]pyrimidin-1-yl)-3,4-dihydroxytetrahydrofuran-2-yl)methoxy)-1-hydroxy-3-(2,2,2-trifluoroethoxy)propan-2-yl)phosphonic acid]
≤ 0.1 µM	C[C@](CO)(OC[C@H]1O[C@@H](n2ncc3c(NC4CCCC4)nc(OCCO)nc32)[C@H](O)[C@@H]1O)P(=O)(O)O [Example 147, ((S)-2-(((2R,3S,4R,5R)-5-(4-(cyclopentylamino)-6-(2-hydroxyethoxy)-1H-pyrazolo[3,4-d]pyrimidin-1-yl)-3,4-dihydroxytetrahydrofuran-2-yl)methoxy)-1-hydroxypropan-2-yl)phosphonic acid]
